According to ChEMBL document CHEMBL1201862, “PubChem BioAssay data set” (2004):
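These data come from cells grown in 96-well plates and exposed to compound for 48 hours at five concentrations. GI50 marks 50% less growth.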 The source made the active and inactive calls. No stated cut-off is given here; in the data, active = GI50 up to about 1.1 µM and inactive = higher.

Assays:
Test in all cases: inhibition of tumour cell growth, NCI panel, 48 h
SK-OV-3 = system: SK-OV-3
SK-MEL-28 = system: SK-MEL-28
NCI-H522 = system: NCI-H522
SN12C = system: SN12C
SK-MEL-5 = system: SK-MEL-5
A498 = system: A498
UACC-257 = system: UACC-257
M14 = system: M14
SNB-19 = system: SNB-19
IGROV-1 = system: IGROV-1
A549 = system: A549
SNB-75 = system: SNB-75
EKVX = system: EKVX
MDA-MB-435 = system: MDA-MB-435
TK-10 = system: TK-10
ACHN = system: ACHN
CCRF-CEM = system: CCRF-CEM
OVCAR-3 = system: OVCAR-3
Malme-3M = system: Malme-3M

Measured: GI50

Cn1c(=O)c2c(ncn2Cc2ccc(O)c([N+](=O)[O-])c2)n(C)c1=O
inactive: SK-OV-3 > 100 µM | SK-MEL-28 > 100 µM | NCI-H522 > 100 µM | SN12C > 100 µM | SK-MEL-5 > 100 µM | A498 > 100 µM | UACC-257 > 100 µM | M14 > 100 µM | SNB-19 > 100 µM | IGROV-1 > 100 µM | A549 > 100 µM | SNB-75 > 100 µM | EKVX > 100 µM | MDA-MB-435 > 100 µM | TK-10 > 100 µM | ACHN > 100 µM | CCRF-CEM > 100 µM | OVCAR-3 > 100 µM

CC1CC/C(=C\c2ccc(F)cc2)C2=C1C(c1ccc(F)cc1)NC(=S)N2 (stereo not drawn)
inactive: SK-OV-3 > 100 µM | SK-MEL-28 88.3 µM | SN12C 97.7 µM | SK-MEL-5 31 µM | Malme-3M 36.7 µM | A498 30.5 µM | UACC-257 43.2 µM | M14 50.9 µM | SNB-19 > 100 µM | IGROV-1 43.5 µM | EKVX 12.9 µM | MDA-MB-435 57.7 µM | TK-10 79.3 µM | ACHN 54.3 µM | CCRF-CEM 68.5 µM | OVCAR-3 33.8 µM

CC(=O)NC(Cc1ccc(OP(=O)(OCc2ccc([N+](=O)[O-])o2)N(C)CCCCCl)cc1)C(=O)NC(C)c1ccc(OCC2CCCCC2)c(C(N)=O)c1 (stereo not drawn)
inactive: SK-OV-3 11.5 µM | SK-MEL-28 2.12 µM | NCI-H522 3.73 µM | SN12C 2.34 µM | SK-MEL-5 1.61 µM | Malme-3M 1.88 µM | A498 18.9 µM | UACC-257 1.93 µM | M14 2.22 µM | SNB-19 3.9 µM | IGROV-1 2.7 µM | A549 4.12 µM | MDA-MB-435 2.31 µM | TK-10 11.4 µM | ACHN 8.15 µM | CCRF-CEM 1.33 µM | OVCAR-3 2.27 µM

COc1ccc(C(=O)/C=C/c2ccc(OCCSCCCCCCCCCCSCCOc3ccc(/C=C/C(=O)c4ccc(OC)c(OC)c4)cc3)cc2)cc1OC
inactive: SK-OV-3 > 100 µM | SK-MEL-28 > 100 µM | NCI-H522 73.8 µM | SN12C > 100 µM | SK-MEL-5 > 100 µM | Malme-3M > 100 µM | A498 > 100 µM | UACC-257 > 100 µM | M14 > 100 µM | IGROV-1 > 100 µM | A549 > 100 µM | SNB-75 > 100 µM | EKVX > 100 µM | MDA-MB-435 > 100 µM | TK-10 > 100 µM | ACHN > 100 µM | CCRF-CEM > 100 µM
